System: HL-60(TB)
Test: NCI screen, leukemia
Assay type: cell-based
Settings: Homo sapiens, read-out: Log10 GI50, HL-60(TB) (converted)

`C[C@]12CC[C@@H]3c4cc(OCC(F)(F)F)c(O)cc4C(=NO)C[C@H]3[C@@H]1CC[C@@H]2O` [Compound 12, 2-(2',2', 2'-Trifluoroethoxy)-6-Hydroximino-Estra-1,3,5(10)-Triene-3,17β-Diol] was tested, and the GI50 was < 10 nM.

— patent US6136992A, “2-alkoxy estradiols and derivatives thereof” (The United States of America as represented by the …, priority 1998, dated 2000)
